In one assay the test system is H446 spheroids. In words: Spheroid MitoSOX assay (mitochondrial superoxide). It counts as cell-based, human. The following applies: increase after 40 h. The method, then:
The IncuCyte system recorded two days MitoSOX red dye (Thermo Fisher Scientific, Waltham, MA) penetration in live H446 spheroids. Spheroids were labeled with 5 μM of dye and red fluorescence was assessed by IncuCyte software. Fluorescence and brightfield images were acquired on an Axio Observer 7 (Carl Zeiss, Jena, Germany) inverted microscope, equipped with a 10×/0.45 NA Plan-Apochromat objective, TL halogen lamp, Colibri 7, filter set 90 HE, and captured on a Zeiss Axiocam 702 CMOS camera. Exposure times and wavelengths were 15 ms (red fluorescence), 9.4 ms (brightfield), BP 555/30 excitation filter, and QBP 592/25 emission filter.

Another assay relates to DMS114 cells. In words: CCK-8 cytotoxicity assay, 72 h. Type of assay: cell-based. Particulars: Homo sapiens, DMS-114. From the text:
(§1) We have determined cell cytotoxicity toward a specific drug, employing Cell Counting Kit-8 (Dojindo Molecular Technologies, Rockville, MD) as previously described (15).
(§2) The expression levels of DRP1 and DHODH in SCLC lines were compared with non-malignant BEAS 2B cells. Elevated levels of DRP1 and pDRP1 at Ser^616 were detected in all tested SCLC cells. Higher expression of DHODH was also observed in all seven SCLC cell lines (FIG. 1C). Previous studies have shown that Leflu and its active metabolite Teri regulate mitochondrial morphology (9,10,26). To find the effects of these two drugs on DRP1, AA docking (27) method was used to search for the best binding pocket for inhibitor binding. […] Leflu has a medium docking score of −5.6 kcal/mol. […] In vitro cytotoxicity effect of Teri and Leflu was tested in a panel of SCLC cell lines. Ten SCLC cell lines were treated with increasing concentrations of each drug for 72 h. […] In contrast, IC50 doses were much higher for Leflu. Upon oral administration of Leflu, over 80% of the drug is converted to Teri (28), indicating a potential reason for higher sensitivity to Teri. Two cell lines, SBC3 and SBC5, with IC50 2 μM and 30 μM, respectively, for Teri were used for additional experiments. […] The inhibitory effect was higher with Teri in both cell lines (FIG. 2A).
For orientation: Tetrazolium assays rely on reduction of a dye to a coloured formazan, in cell work by metabolically active cells.

A further assay deals with DMS273 cells. Kind of assay: CCK-8 cytotoxicity assay, 72 h. The following applies: Homo sapiens, DMS-273. Type of assay: cell-based.
Excerpt: as §1, §2

The test system of a further assay is H146 cells. In words: CCK-8 cytotoxicity assay, 72 h. It counts as cell-based. Particulars: Homo sapiens, NCI-H146.
Excerpt: as §1, §2

A further assay concerns H345 cells. In words: CCK-8 cytotoxicity assay, 72 h. It counts as cell-based. The following applies: Homo sapiens, NCI-H345.
Excerpt: as §1, §2

For a further assay, the system named is H524 cells. Kind of assay: CCK-8 cytotoxicity assay, 72 h. It counts as cell-based. Particulars: Homo sapiens, NCI-H524.
Excerpt: as §1, §2

The test system of another assay is H526 cells. In words: CCK-8 cytotoxicity assay, 72 h. Type of assay: cell-based. Particulars: Homo sapiens, NCI-H526.
Excerpt: as §1, §2

The next assay concerns H69 cells. In words: CCK-8 cytotoxicity assay, 72 h. The following applies: Homo sapiens, NCI-H69. Type of assay: cell-based.
Excerpt: as §1, §2

In a further assay the test system is H82 cells. In words: CCK-8 cytotoxicity assay, 72 h. It counts as cell-based. Particulars: Homo sapiens, NCI-H82.
Excerpt: as §1, §2

In another assay the test system is SBC5 cells. In words: IncuCyte S3 live-cell proliferation. Type of assay: cell-based, human. As to the method: FIGS. 2A-2I. Teriflunomide (Teri) affects the phosphorylation of DRP1 at Ser^616 and mitochondrial/nuclear morphology. FIG. 2A: Effect of Teri and Leflu on SBC3, and SBC5 cells proliferation was recorded by the Sartorius IncuCyte S3 live-cell analysis system (n=2, four technical replicates). […] FIG. 2B: Effect of Teri on DRP1 phosphorylation in SBC3 cells. Cell lysates were subjected to immunoblotting (n=3, biological replicates). FIG. 2C: The expression ratio of level of pDRP1 Ser^616 and Ser^637 to actin was calculated via densitometric analysis of each blot using ImageJ software. The detected ratio of pDRP1 Ser^616 to pDRP1 Ser^637 was calculated and compared in SBC3 cells. […] FIGS. 2D-2E: Calculating pDRP1 Ser^616 fluorescence signal by QuPath software. Bar graphs mean±SE, *p<0.05; **p<0.01; ***p<0.001; ****p<0.0001. Results were analyzed by ANOVA with Tukey post-test. FIG. 2F: The surface areas of SBC3 mitochondria and nuclei were quantified with Imaris Cells modules. The minimal number of SBC3 cells analyzed for each group was 103 (M1 10 μM), and the maximal was 383 (Control). FIG. 2G: SBC5 mitochondria and nuclei surface areas were quantified with Imaris Cells modules. The minimal number of SBC5 cells analyzed for each group was 357 (MDIVI1 10 μM) and the maximal was 570 (Control). Results were analyzed by ANOVA with Tukey post-test, *p<0.05; **p<0.01; ****p<0.0001. Mitochondria in control cells were closely packed around the nuclei and treatment with Teri rearranged the mitochondrial network and extended the area from the nuclei. […] SBC3 cells were treated with drugs for 18 hours, fixed with paraformaldehyde and subjected to IF staining with Tom 20 antibody, nuclei were stained with Hoechst 33342. Scale bar 10 μm. Right inserts represent shape of mitochondria for control and treatments. FIG. 2I: High resolution confocal IF images of mitochondria in SBC5 cells. Scale bar 10 μm. Right inserts represent shape of mitochondria for control and treatments.

In another assay the test system is SBC5 SCLC cell line. In words: Immunoblotting of DRP1 phosphorylation. Type of assay: cell-based, human. Particulars: SBC5 as printed. The method, then: SCLC total cell lysates were prepared using RIPA (radioimmunoprecipitation assay lysis buffer) lysis buffer. Protein concentration was determined using DC Protein Assay Kit Bio-Rad (Hercules, CA). Samples were then run on SDS-PAGE in 4-15% polyacrylamide gels and transferred onto Immobilon membranes (Millipore, MO), blocked, incubated with specific primary antibodies at 4° C. overnight, and subsequently developed with secondary antibodies. The following primary antibody were used: pan-Actin, Phospho-DRP1 (Ser^616), Phospho-DRP1 (Ser^637), Histone H2B (V^119), Phospho-Histone H2A.X (Ser^139), Phospho-P53 (Ser^15), P-53, Cleaved PARP (Asp^214) (D64E10), Phospho-Chk1 (Ser^345) (133D3) and p21 were from Cell Signaling Technology (City of Industry, CA), β-Actin (Sigma-Aldrich, St. Luis, MO), Phospho RNA Polymerase II (S2) antibody (Bethyl Lab, Montgomery, TX), RNA Polymerase II CTD4H8 (BioLegend, San Diego, CA), DHODH (E-8), DRP1 (C-5), GAPDH (0411), c-Myc (9E10), Tom20 (F-10), FisI (B-5), OPA1 (D-9), antibodies from Santa Cruz Biotechnology (Dallas, TX) and MFN2 (Abcam, Boston, MA) and Chk1, MDM2, Cyclin CDK4 and D1, and E2F1 (Proteintech, Rosemont, IL).
Although mitochondrial areas of SBC5 cells were not affected with treatment, elongations of individual mitochondria were detected with each treatment.
Background: In western blotting, separated proteins are transferred to a membrane and probed.

SMILES strings stand for the structures.

For `COc1ccc2[nH]c3c(c2c1)CCN[C@]31CS[C@@H]2c3c(OC(C)=O)c(C)c4c(c3[C@H](COC1=O)N1[C@@H]2[C@H]2c3c(cc(C)c(OC)c3O)C[C@@H]([C@@H]1O)N2C)OCO4` [Lurbinectedin, lurbinectedin], the “mitochondrial superoxide levels (MitoSOX)” value with H446 spheroids is on record as “unaffected”.
As to `C/C(O)=C(\C#N)C(=O)Nc1ccc(C(F)(F)F)cc1` [Teriflunomide, teriflunomide], the IC50 in the assay on DMS114 cells was 12.6 µM; in the assay with DMS273 cells it was 43.7 µM; in the assay on H146 cells, 8.6 µM; in the assay with H345 cells, > 43.7 µM; with H524 cells it was 10.8 µM; with H526 cells it was 7.6 µM. Besides, the IC50 with H69 cells was 17.1 µM; in the assay on H82 cells it was 7.2 µM. In addition, the cell proliferation entry in the assay on SBC5 cells is reported as “inhibited cell proliferation in a dose-dependent manner”. Besides, the DRP1 expression level result in the assay on SBC5 SCLC cell line is listed as “unaffected”. In the assay with SBC5 SCLC cell line, the “DRP1 phosphorylation at Ser616, and Ser637” value was “significantly inhibits”. For the same molecule, the “mitochondrial superoxide levels (MitoSOX)” value in the assay on H446 spheroids was “unaffected”.
For the molecule `Cc1oncc1C(=O)Nc1ccc(C(F)(F)F)cc1` [Leflunomide, leflunomide], the IC50 was > 152 µM with DMS114 cells; > 152 µM with DMS273 cells; 152 µM in the assay with H146 cells; > 152 µM in the assay with H345 cells; 133 µM in the assay on H524 cells; 48.3 µM in the assay on H526 cells. Further, the IC50 in the assay with H69 cells is > 152 µM; with H82 cells, 103 µM. In the assay with SBC5 cells, the cell proliferation entry was “inhibited cell proliferation in a dose-dependent manner”.

For orientation: IC50 means the concentration needed to halve the response being measured.

The values above are taken from patent US20250041313A1, “COMBINATION THERAPY FOR TREATMENT OF CANCER” (CITY OF HOPE, priority 2023, published 2025).
